These results are taken from patent US11155525B2 (Sanford Burnham Prebys Medical Discovery Institute, priority 2015, dated 2021).

The target of the test is T1, human apelin receptor (Homo sapiens, UniProt P35414).
T1 construct: host or cells: CHO cells
T1 sequence (P35414 1-380): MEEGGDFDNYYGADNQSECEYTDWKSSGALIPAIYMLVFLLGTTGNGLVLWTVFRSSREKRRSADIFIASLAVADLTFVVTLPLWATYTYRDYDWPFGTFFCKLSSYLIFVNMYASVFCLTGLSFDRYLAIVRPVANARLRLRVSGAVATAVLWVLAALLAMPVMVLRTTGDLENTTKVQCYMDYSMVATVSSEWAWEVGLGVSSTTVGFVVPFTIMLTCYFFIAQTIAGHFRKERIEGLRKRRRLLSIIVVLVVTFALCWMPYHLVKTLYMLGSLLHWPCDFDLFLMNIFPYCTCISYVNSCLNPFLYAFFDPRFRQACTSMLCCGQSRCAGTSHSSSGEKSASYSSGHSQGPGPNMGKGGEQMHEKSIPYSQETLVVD
Description: Measurement of apelin receptor agonist activity (cell-based assay determining the amount of intracellular cAMP). The note with it: CHO cells stably expressing the human apelin receptor, Forskolin 10 μM, 30 minutes, 100% efficacy = [Pyr1]-apelin-13 0.300 μM, concentration giving 50% efficacy. Here is the method:
Measurement of Apelin Receptor Agonist Activity
The apelin receptor agonist activity of the compound represented by formula (I) or (II) of the present invention was measured by cell-based assay for determining the amount of intracellular cAMP.
CHO cells (DiscoveRx Corp.) stably expressing the human apelin receptor were inoculated to wells of a microtiter plate and cultured overnight at 37° C. under conditions of 5% CO2.
Each test compound and Forskolin were added to the wells at the same time. Specifically, the test compound dissolved in DMSO was diluted with a Forskolin-containing buffer [DMEM/F-12, HEPES, no phenol red (#11039, GIBCO)] to prepare a mixed solution containing the test compound at a final concentration of […] (common ratio: 3, serial dilution: 11), Forskolin at a final concentration of 10 μM, and DMSO at a final concentration of 0.3% v/v, which was then added to the wells (N═4).
After 30 minutes, the cells were lysed, and HitHunter cAMP XS+ Assay #90-0075L (DiscoveRx Corp.) was added to the cell lysate. The mixture was left overnight, and the resulting chemiluminescence signals were then detected using Analyst GT (Molecular Devices LLC.) to determine the amount of cAMP.
The amount of cAMP determined by the addition of a positive control [Pyr1]-apelin-13 (final concentration: 0.300 μM) and Forskolin (final concentration: 10 μM) at the same time was used as an index to define 100% efficacy. The amount of cAMP determined by the addition of Forskolin (final concentration: 10 μM) alone was used as an index to define 0% efficacy.
A dose response curve was prepared from the final concentration of the test compound and the determined amount of cAMP using Sigmaplot 12.0.

In the case of `COc1cccc(OC)c1-n1c(SCC(=O)O)nnc1-c1ccc(Br)o1` [Example 26, {[5-(5-Bromofuran-2-yl)-4-(2,6-dimethoxyphenyl)-4H-1,2,4-triazol-3-yl]sulfanyl}acetic acid], a half-maximal effect (EC50) was put at 57 nM. In turn, `COc1cccc(OC)c1-n1c(SC)nnc1-c1ccc(C)o1` [Example 85, 4-(2,6-Dimethoxyphenyl)-3-(5-methylfuran-2-yl)-5-(methylsulfanyl)-4H-1,2,4-triazole] displayed an EC50 of 253 nM. `COc1cccc(OC)c1-n1c(SCc2n[nH]c(=O)[nH]2)nnc1-c1ccc(C)o1` [Example 100, 5-({[4-(2,6-Dimethoxyphenyl)-5-(5-methylfuran-2-yl)-4H-1,2,4-triazol-3-yl]sulfanyl}methyl)-2,4-dihydro-3H-1,2,4-triazol-3-one] registered an EC50 of 957 nM. Take `CCOC(=O)C(=O)/C=C/c1nnc(-c2ccc(C)o2)n1-c1c(OC)cccc1OC` [Example 51, Ethyl (3E)-4-[4-(2,6-dimethoxyphenyl)-5-(5-methylfuran-2-yl)-4H-1,2,4-triazol-3-yl]-2-oxobut-3-enoate]: the EC50 is 111 nM. This EC50 lies about 8.6-fold lower than the previous one. In turn, `COc1cccc(OC)c1-n1c(/C=C\C(=O)O)nnc1-c1ccc(C)o1` [Example 56, (2Z)-3-[4-(2,6-Dimethoxyphenyl)-5-(5-methylfuran-2-yl)-4H-1,2,4-triazol-3-yl]prop-2-enoic acid] had an EC50 of 48 nM. With `COc1cccc(OC)c1-n1c(SCC(=O)NS(=O)(=O)c2ccccc2)nnc1-c1ccc(C)o1` [Example 95, 2-{[4-(2,6-Dimethoxyphenyl)-5-(5-methylfuran-2-yl)-4H-1,2,4-triazol-3-yl]sulfanyl}-N-(phenylsulfonyl)acetamide], it took 6 nM to reach a half-maximal effect (EC50). Then `COc1cccc(OC)c1-n1c(/C=C/C(C)=O)nnc1-c1ccc(C)o1` [Example 20, (3E)-4-[4-(2,6-Dimethoxyphenyl)-5-(5-methylfuran-2-yl)-4H-1,2,4-triazol-3-yl]but-3-en-2-one], with 729 nM; and `COc1cccc(OC)c1-n1c(-c2ccc(C)o2)nnc1-c1ccccc1C(=O)O` [Example 59, 2-[4-(2,6-Dimethoxyphenyl)-5-(5-methylfuran-2-yl)-4H-1,2,4-triazol-3-yl]benzoic acid], with 349 nM. The molecule `COc1cccc(OC)c1-n1c(SCC(N)=O)nnc1-c1ccc(C)o1` [Example 83, 2-{[4-(2,6-Dimethoxyphenyl)-5-(5-methylfuran-2-yl)-4H-1,2,4-triazol-3-yl]sulfanyl}acetamide] displayed an EC50 of 219 nM. Then `COc1cccc(OC)c1-n1c(SCc2cc(=O)[nH]c(=O)[nH]2)nnc1-c1ccc(C)o1` [Example 14, 6-({[4-(2,6-Dimethoxyphenyl)-5-(5-methylfuran-2-yl)-4H-1,2,4-triazol-3-yl]sulfanyl}methyl)pyrimidine-2,4(1H,3H)-dione], with 424 nM. For the molecule `COc1cccc(OC)c1-n1c(CS(=O)(=O)c2nnc[nH]2)nnc1-c1ccc(C)o1` [Example 69], the EC50 was 696 nM. With `CCCCc1nnc(SCC(=O)O)n1-c1c(OC)cccc1OC` [Example 29, {[5-Butyl-4-(2,6-dimethoxyphenyl)-4H-1,2,4-triazol-3-yl]sulfanyl}acetic acid], the EC50 stood at 812 nM. For `COc1cccc(OC)c1-n1c(S)nnc1-c1cccs1` [Example 10, 4-(2,6-Dimethoxyphenyl)-5-(thiophen-2-yl)-4H-1,2,4-triazole-3-thiol], it took 192 nM to reach a half-maximal effect (EC50). `COc1cccc(OC)c1-n1c(CNC(=O)C(=O)O)nnc1-c1ccc(C)o1` [Example 98, ({[4-(2,6-Dimethoxyphenyl)-5-(5-methylfuran-2-yl)-4H-1,2,4-triazol-3-yl]methyl}amino)(oxo)acetic acid] displayed an EC50 of 1170 nM. Then `COc1cccc(OC)c1-n1c(SCc2cccnn2)nnc1-c1ccc(C)o1` [Example 75, 3-({[4-(2,6-Dimethoxyphenyl)-5-(5-methylfuran-2-yl)-4H-1,2,4-triazol-3-yl]sulfanyl}methyl)pyridazine], with 128 nM. `COc1cccc(OC)c1-n1c(CCC(C)O)nnc1-c1ccc(C)o1` (stereo not drawn) [Example 25, 4-[4-(2,6-Dimethoxyphenyl)-5-(5-methylfuran-2-yl)-4H-1,2,4-triazol-3-yl]butan-2-ol] registered an EC50 of 1720 nM.

As to `COc1cccc(OC)c1-n1c(S)nnc1-c1ccc(C)o1` [Example 1, 4-(2,6-Dimethoxyphenyl)-5-(5-methylfuran-2-yl)-4H-1,2,4-triazole-3-thiol], the EC50 amounted to 31 nM. The same measure for `COc1cccc(OC)c1-n1c(SCC#N)nnc1-c1ccc(C)o1` [Example 84, {[4-(2,6-Dimethoxyphenyl)-5-(5-methylfuran-2-yl)-4H-1,2,4-triazol-3-yl]sulfanyl}acetonitrile]: 267 nM.

On to `COc1cccc(OC)c1-n1c(SCC(=O)O)nnc1-c1ccccc1` [Example 28, {[4-(2,6-Dimethoxyphenyl)-5-phenyl-4H-1,2,4-triazol-3-yl]sulfanyl}acetic acid], for which a half-maximal response (EC50) required 1420 nM. This EC50 lies about 5.3-fold higher than the previous one. `COc1cccc(OC)c1-n1c(SCc2ccc(C(=O)O)cc2)nnc1-c1ccc(C)o1` [Example 82, 4-({[4-(2,6-Dimethoxyphenyl)-5-(5-methylfuran-2-yl)-4H-1,2,4-triazol-3-yl]sulfanyl}methyl)benzoic acid] gave an EC50 of 5460 nM.

As for `COc1cccc(OC)c1-n1c(SCC(=O)O)nnc1-c1cccnc1` [Example 27, {[4-(2,6-Dimethoxyphenyl)-5-(pyridin-3-yl)-4H-1,2,4-triazol-3-yl]sulfanyl}acetic acid], the response was half-maximal at 2870 nM (EC50). In turn, `COC(=O)c1cccc(CSc2nnc(-c3ccc(C)o3)n2-c2c(OC)cccc2OC)c1` [Example 79, Methyl 3-({[4-(2,6-dimethoxyphenyl)-5-(5-methylfuran-2-yl)-4H-1,2,4-triazol-3-yl]sulfanyl}methyl)benzoate] had an EC50 of 208 nM.

In turn, `COC(=O)c1ccc(CSc2nnc(-c3ccc(C)o3)n2-c2c(OC)cccc2OC)cc1` [Example 81, Methyl 4-({[4-(2,6-dimethoxyphenyl)-5-(5-methylfuran-2-yl)-4H-1,2,4-triazol-3-yl]sulfanyl}methyl)benzoate] gave an EC50 of 71 nM. As to `COc1cccc(OC)c1-n1c(SCP(=O)(OC(C)C)OC(C)C)nnc1-c1ccc(C)o1` [Example 96, Dipropan-2-yl ({[4-(2,6-dimethoxyphenyl)-5-(5-methylfuran-2-yl)-4H-1,2,4-triazol-3-yl]sulfanyl}methyl)phosphonate], the half-maximal effective concentration (EC50) is 605 nM. Turning to `COc1cccc(OC)c1-n1c(SCc2cc(=O)n3cc(C)ccc3n2)nnc1-c1ccc(C)o1` [Example 2, 2-({[4-(2,6-Dimethoxyphenyl)-5-(5-methylfuran-2-yl)-4H-1,2,4-triazol-3-yl]sulfanyl}methyl)-7-methyl-4H-pyrido[1,2-a]pyrimidin-4-one], the EC50 turned out to be 1 nM. In turn, `COc1cccc(OC)c1-n1c(SCc2n[nH]c(=O)o2)nnc1-c1ccc(C)o1` [Example 101, 5-({[4-(2,6-Dimethoxyphenyl)-5-(5-methylfuran-2-yl)-4H-1,2,4-triazol-3-yl]sulfanyl}methyl)-1,3,4-oxadiazol-2(3H)-one] registered an EC50 of 587 nM. Then `COc1cccc(OC)c1-n1c(SC(C(=O)O)c2ccccc2)nnc1-c1ccc(C)o1` (stereo not drawn) [Example 35, {[4-(2,6-Dimethoxyphenyl)-5-(5-methylfuran-2-yl)-4H-1,2,4-triazol-3-yl]sulfanyl}(phenyl)acetic acid], with 10 nM.

One may read the EC50 as the concentration needed to bring the measured effect to its halfway point.
